The assay concerns pruritus of the scalp. Put plainly: Double-blind, placebo-controlled clinical evaluation of scalp itching intensity with shampoos containing 0.5% bisabolol. The assay is classed as in vivo, human. The settings on record: for itching intensity, Mean +/− SEM: scale of 0-10, washed once a day, volunteers with pruritus of the scalp; for itching intensity, Mean +/− SEM / itching intensity, Δ % mean: shampoo with 0.5% by weight bisabolol; for itching intensity, Δ % mean: D14 versus D0 (T0). The text has this:
Comparison of the improvement in skin soothing effect using shampoos formulated with bio-bisabolol, chemically-produced bisabolol and plant-derived bisabolol. Samples of the bio-bisabolol prepared according to Example 1, a commercially-available synthetic bisabolol and a bisabolol derived from chamomile oil were incorporated into shampoo formulations at 0.5% by weight. An untreated sample of the shampoo was included as placebo. A double-blind, inter-individual and placebo-controlled clinical evaluation was performed on 80 volunteers (both men and women of age 18 and over). The subjects had Fitzpatrick skin types I to IV, and all suffered from pruritus of the scalp. The volunteers washed and rinsed their hair once a day and itching intensity was evaluated on days 1 and 14, using a scale of 0-10, where 0 represents no itching and 10 represents […].

Turning to `CC(C)=CCC[C@](C)(O)[C@@H]1CC=C(C)CC1` [Plant bisabolol], the “itching intensity, Δ % mean” value is −69%. Besides, the “itching intensity, Mean +/− SEM” value (D0) was 4.8 ± 0.5. Moreover, under “D14”, the “itching intensity, Mean +/− SEM” value is recorded as 1.5 ± 0.4. For the same compound, the “reduction in scalp irritation in comparison with the placebo (in words)” value (after 14 days of application) was “did not show any significant reduction”.
Regarding `CC(C)=CCC[C@@](C)(O)[C@@H]1CC=C(C)CC1` [Example 1 bio-bisabolol, (−)-α-bisabolol], the “itching intensity, Δ % mean” value is −93%. The “itching intensity, Mean +/− SEM” value (D0) is on record as 4.3 ± 0.4. The “itching intensity, Mean +/− SEM” value (D14) came out at 0.3 ± 0.2. Moreover, for the setting “after 14 days of application, p<0.1”, the “reduction in scalp irritation in comparison with the placebo group” value stood at 25%.
As to `CC(C)=CCC[C@](C)(O)[C@@H]1CC=C(C)CC1` [Synthetic bisabolol], the “itching intensity, Δ % mean” value is given as −70%. Also, the “itching intensity, Mean +/− SEM” value (D0) was found to be 4.4 ± 0.5. The “itching intensity, Mean +/− SEM” value (D14) turned out to be 1.3 ± 0.4. Also, the “reduction in scalp irritation in comparison with the placebo (in words)” value (after 14 days of application) was “did not show any significant reduction”.

Source of the values: US20240225970A1, “A METHOD OF REDUCING SKIN IRRITATION, COMPRISING THE APPLICATION TO THE SKIN OF AN ALPHA-BISABOLOL PREPARED BY A BIOTECHNOLOGICAL PROCESS” (Givaudan SA, priority 2020, published 2024).
